Data reported in patent US12527779B2, “Prostaglandin E2 (PGE2) EP4 receptor antagonists” (Domain Therapeutics, priority 2019, dated 2026).
Where a name gives a salt, the structure may show the parent alone.

molecular target: T1, human EP4 (hEP4) receptor (Homo sapiens, UniProt P35408); experiment: In vitro human EP4 functional antagonist activity using BRET biosensors (cAMP EPAC biosensor, TCS2510 stimulation); assay type: cell-based; conditions: antagonist activity vs EC60 TCS2510, hEP4 in HEK-293 T cells
T1 construct: expressed in transfected cells; host or cells: HEK-293 T cells, transient co-transfection with polyethylenimine
T1 sequence (P35408 whole entry): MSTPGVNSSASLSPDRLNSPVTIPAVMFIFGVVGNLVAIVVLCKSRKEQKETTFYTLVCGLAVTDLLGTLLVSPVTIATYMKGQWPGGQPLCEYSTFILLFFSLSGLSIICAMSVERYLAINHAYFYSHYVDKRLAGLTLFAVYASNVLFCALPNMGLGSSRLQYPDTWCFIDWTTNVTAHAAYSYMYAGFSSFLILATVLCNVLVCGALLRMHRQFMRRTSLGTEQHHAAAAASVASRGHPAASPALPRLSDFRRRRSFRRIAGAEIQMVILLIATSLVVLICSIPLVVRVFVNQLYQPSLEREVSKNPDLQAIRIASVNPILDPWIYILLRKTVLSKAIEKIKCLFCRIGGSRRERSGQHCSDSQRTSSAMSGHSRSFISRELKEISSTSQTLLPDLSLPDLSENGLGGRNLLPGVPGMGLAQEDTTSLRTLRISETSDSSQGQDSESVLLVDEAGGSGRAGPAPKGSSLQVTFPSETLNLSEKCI
Method: Examples of the present invention were tested successively for their agonist and antagonist activities on human EP4 (hEP4) receptor transiently over-expressed in HEK-293 T cells. […] The assay used to measure compound activity is based on the BRET technology. The unimolecular cAMP biosensor used to detect intracellular cAMP levels following GPCR stimulation consists of the EPAC protein fused to N- and C-terminal of Luciferase and GFP respectively.
Cell Culture and Transfection: HEK-293 T cells are maintained in Dulbecco's Modified Eagle's Medium supplemented with 10% Foetal Calf Serum, 1% Penicillin/Streptomycin at 37° C./5% CO2. Cells are co-transfected using polyethylenimine (25 kDa linear) with two DNA plasmids encoding hEP4, EPAC fused to luciferase (BRET donor) and to GFP (BRET acceptor). After transfection, cells are cultured (40,000 cells per well) for 48 h at 37° C./5% CO2.
BRET assay: Receptor activity is detected by changes in BRET signal. On the day of the assay, cells are rinsed and incubated in assay buffer (1.8 mM CaCl2, 1 mM MgCl2, 2.7 mM KCl, 137 mM NaCl, 0.4 mM NaH2PO4, 5.5 mM D-Glucose, 11.9 mM NaHCO3, 25 mM Hepes). Then, plates are equilibrated 1 h at 22° C. before adding compounds. Compounds and luciferase substrate are added to the cells using an automated device (Freedom Evo®, Tecan) and BRET readings are collected on EnVision (PerkinElmer) with specific filters (410 nm BW 80 nm, 515 nm BW 30 nm). Agonist and antagonist activities of compounds are consecutively evaluated on the same cell plate. Agonist activity is first measured after 5 min incubation with compound alone on the cells. Then, cells are stimulated by an EC60 TCS2510 concentration and luminescence is recorded for additional 10 min. EC60 TCS2510 concentration is the concentration giving 60% of the maximal TCS2510 response. Agonist or antagonist activities are evaluated in comparison to basal signals evoked by assay buffer or EC60 TCS2510 alone, respectively.
For IC50 determination, a dose-response test is performed using 10 concentrations (ranging over 4.5 logs) of each compound. Dose-response curves are fitted using the sigmoidal dose-response (variable slope) analysis in GraphPad Prism software (GraphPad Software) and IC50 of antagonist activity is calculated. Dose-response experiments are performed in duplicate, in two independent experiments. IC50 values are categorized as following: A: IC50<0.1 μM; B: IC50<1 μM.

C[C@H](NC(=O)C1(NCCOc2ccccc2)CCSCC1)c1ccc(C(=O)O)cc1 [Example 66, 4-[(1S)-1-[[4-(2-Phenoxyethylamino)tetrahydrothiopyran-4-carbonyl]amino]ethyl]benzoic acid] and C[C@H](NC(=O)C1(NCCOc2ccccc2)CCC1)c1ccc(C(=O)O)cc1 [Example 69, 4-[(1S)-1-[[1-(2-Phenoxyethylamino)cyclobutanecarbonyl]amino]ethyl]benzoic acid, hydrochloride] cannot be ordered by IC50: < 100 nM for the first, < 1000 nM for the second.

Cc1cccc(O[C@@H]2CCN(C3(C(=O)N[C@@H](C)c4ccc(C(=O)O)cc4)CCOCC3)C2)c1 [Example 150, 4-[(1S)-1-[[4-[(3R)-3-(3-Methylphenoxy)pyrrolidin-1-yl]tetrahydropyran-4-carbonyl]amino]ethyl]benzoic acid, hydrochloride] and COc1cccc(O[C@@H]2CCN(C3(C(=O)N[C@@H](C)c4ccc(C(=O)O)cc4)CCOCC3)C2)c1 [Example 148, 4-[(1S)-1-[[4-[(3R)-3-(3-Methoxyphenoxy)pyrrolidin-1-yl]tetrahydropyran-4-carbonyl]amino]ethyl]benzoic acid, hydrochloride] cannot be ordered by IC50: < 100 nM for the first, < 100 nM for the second.

COc1cccc(OCCN(C)C2(C(=O)N[C@@H](C)c3ccc(C(=O)O)cc3)CCCCC2)c1 [Example 60, 4-[(1S)-1-[[1-[2-(3-Methoxyphenoxy)ethyl-methyl-amino]cyclohexanecarbonyl]amino]ethyl]benzoic acid, hydrochloride] and C[C@H](NC(=O)C1(N(C)CCOc2ccccc2)CCCC1)c1ccc(C(=O)O)cc1 [Example 62, 4-[(1S)-1-[[1-[Methyl(2-phenoxyethyl)amino]cyclopentanecarbonyl]amino]ethyl]benzoic acid, hydrochloride] cannot be ordered by IC50: < 100 nM for the first, < 100 nM for the second.

C[C@H](NC(=O)C1(NCCOc2cccc(Cl)c2)CCOCC1)c1ccc(C(=O)O)cc1 [Example 8, 4-[(1S)-1-[[4-[2-(3-Chlorophenoxy)ethylamino]tetrahydropyran-4-carbonyl]amino]ethyl]benzoic acid, hydrochloride] and C[C@H](NC(=O)C1(NCCOc2ccc(Cl)cc2)CCOCC1)c1ccc(C(=O)O)cc1 [Example 11, 4-[(1S)-1-[[4-[2-(4-Chlorophenoxy)ethylamino]tetrahydropyran-4-carbonyl]amino]ethyl]benzoic acid, hydrochloride] cannot be ordered by IC50: < 100 nM for the first, < 1000 nM for the second.

C[C@H](NC(=O)C1(NCCOc2ccccc2)CCC(F)(F)CC1)c1ccc(C(=O)O)cc1 [Example 65, 4-[(1S)-1-[[4,4-Difluoro-1-(2-phenoxyethylamino)cyclohexanecarbonyl]amino]ethyl]benzoic acid, hydrochloride] and C[C@H](NC(=O)C1(NCCOc2ccccc2)CCOC(C)(C)C1)c1ccc(C(=O)O)cc1 (single isomer, unassigned) [Example 72, hydrochloride] cannot be ordered by IC50: < 1000 nM for the first, < 100 nM for the second.

C[C@H](NC(=O)C1(N2CC[C@@H](Oc3cccc(C(F)(F)F)c3)C2)CCOCC1)c1ccc(S(N)(=O)=O)cc1 [Example 178, N—((S)-1-(4-Sulfamoylphenyl)ethyl)-4-((R)-3-(3-(trifluoromethyl)phenoxy)pyrrolidin-1-yl)tetrahydro-2H-pyran-4-carboxamide, hydrochloride] and CNC(=O)c1ccc([C@H](C)NC(=O)C2(N3CC[C@@H](Oc4cccc(C(F)(F)F)c4)C3)CCOCC2)cc1 [Example 169, hydrochloride] cannot be ordered by IC50: < 100 nM for the first, < 100 nM for the second.

C[C@H](NC(=O)C1(c2cccc(OCc3ccccc3)c2)CCCC1)c1ccc(C(=O)O)cc1 [Example 113, 4-[(1S)-1-[[1-(3-Benzyloxyphenyl)cyclopentanecarbonyl]amino]ethyl]benzoic acid] and C[C@H](NC(=O)C1(c2cccc(OCC3CC3)c2)CCOCC1)c1ccc(C(=O)O)cc1 [Example 101, 4-[(1S)-1-[[4-[3-(Cyclopropylmethoxy)phenyl]tetrahydropyran-4-carbonyl]amino]ethyl]benzoic acid] cannot be ordered by IC50: < 100 nM for the first, < 1000 nM for the second.

CN(CCOc1ccccc1Cl)C1(C(=O)NC2(c3ccc(C(=O)O)cc3)CC2)CCOCC1 [Example 30, 4-[1-[[4-[2-(2-Chlorophenoxy)ethyl-methyl-amino]tetrahydropyran-4-carbonyl]amino]cyclopropyl]benzoic acid, hydrochloride] and C[C@H](NC(=O)C1(N(C)CCOc2ccccc2)CCOCC1)c1ccc(C(N)=O)cc1 [Example 3, N-[(1S)-1-(4-Carbamoylphenyl)ethyl]-4-[methyl(2-phenoxyethyl)amino]tetrahydropyran-4-carboxamide] cannot be ordered by IC50: < 100 nM for the first, < 1000 nM for the second.

O=C(NC[C@H]1CC[C@H](C(=O)O)CC1)C1(N2CC[C@@H](Oc3cccc(C(F)(F)F)c3)C2)CCOCC1 [Example 200, (1R,4R)-4-((4-((R)-3-(3-(Trifluoromethyl)phenoxy)pyrrolidin-1-yl)tetrahydro-2H-pyran-4-carboxamido)methyl)cyclohexane-1-carboxylic acid, hydrochloride] and C[C@H](NC(=O)C1(N2CC[C@@H](Oc3cccc(C(F)(F)F)c3)C2)CCOCC1)c1ccc(C(=O)N(C)C)cc1 [Example 170, 4-[(1S)-1-[[4-[(3R)-3-[3-(Trifluoromethyl)phenoxy]pyrrolidin-1-yl]tetrahydropyran-4-carbonyl]dimethylamino]ethyl]benzamide, hydrochloride] cannot be ordered by IC50: < 100 nM for the first, < 100 nM for the second.

COc1cccc([C@H](C)NC(=O)C2(N3CC[C@@H](Oc4cccc(C(F)(F)F)c4)C3)CCOCC2)c1 [Example 196, N—((S)-1-(3-Methoxyphenyl)ethyl)-4-((R)-3-(3-(trifluoromethyl)phenoxy)pyrrolidin-1-yl)tetrahydro-2H-pyran-4-carboxamide, hydrochloride] and C[C@H](NC(=O)C1(N2CC[C@@H](Oc3ccccc3)C2)CCOCC1)c1ccc(C(=O)O)cc1 [Example 152, 4-[(1S)-1-[[4-((3R)-3-Phenoxypyrrolidin-1-yl)tetrahydropyran-4-carbonyl]amino]ethyl]benzoic acid, hydrochloride] cannot be ordered by IC50: < 1000 nM for the first, < 100 nM for the second.

C[C@H](NC(=O)C1(c2ccc(OCCC3CCCCC3)cn2)CCOCC1)c1ccc(C(=O)O)cc1 [Example 120, 4-[(1S)-1-[[4-[5-(2-Cyclohexylethoxy)-2-pyridyl]tetrahydropyran-4-carbonyl]amino]ethyl]benzoic acid] and C[C@H](NC(=O)C1(c2ccc(OCCC3CCCCC3)cc2)CCOCC1)c1ccc(C(=O)O)cc1 [Example 95, 4-[(1S)-1-[[4-[4-(2-Cyclohexylethoxy)phenyl]tetrahydropyran-4-carbonyl]amino]ethyl]benzoic acid] cannot be ordered by IC50: < 1000 nM for the first, < 1000 nM for the second.

C[C@H](NC(=O)C1(N2CCC[C@@H](Oc3cccc(Cl)c3)C2)CCOCC1)c1ccc(C(=O)O)cc1 [Example 136, 4-[(1S)-1-[[4-[(3R)-3-(3-Chlorophenoxy)-1-piperidyl]tetrahydropyran-4-carbonyl]amino]ethyl]benzoic acid, hydrochloride] and O=C(O)c1ccc(C2(NC(=O)C3(N4CC[C@@H](Oc5cccc(F)c5)C4)CCOCC3)CC2)cc1 [Example 143, 4-[1-[[4-[(3R)-3-(3-Fluorophenoxy)pyrrolidin-1-yl]tetrahydropyran-4-carbonyl]amino]cyclopropyl]benzoic acid, hydrochloride] cannot be ordered by IC50: < 100 nM for the first, < 100 nM for the second.

C[C@H](NC(=O)C1(c2ccc(OCC3CCCCC3)cn2)CCCC1)c1ccc(C(=O)O)cc1 [Example 127, 4-[(1S)-1-[[1-[5-(Cyclohexylmethoxy)-2-pyridyl]cyclopentanecarbonyl]amino]ethyl]benzoic acid] and C[C@H](NC(=O)C1(c2ccc(OCC3CCCCC3)nc2)CCOCC1)c1ccc(C(=O)O)cc1 [Example 121, 4-[(1S)-1-[[4-[6-(Cyclohexylmethoxy)-3-pyridyl]tetrahydropyran-4-carbonyl]amino]ethyl]benzoic acid] cannot be ordered by IC50: < 1000 nM for the first, < 1000 nM for the second.

C[C@H](NC(=O)C(C)(C)N1CC[C@@H](Oc2cccc(Cl)c2)C1)c1ccc(C(=O)O)cc1 [Example 161, hydrochloride] and C[C@H](NC(=O)C1(c2ccc(OCC(F)(F)F)cc2)CCOCC1)c1ccc(C(=O)O)cc1 [Example 91, 4-[(1S)-1-[[4-[4-(2,2,2-Trifluoroethoxy)phenyl]tetrahydropyran-4-carbonyl]amino]ethyl]benzoic acid] cannot be ordered by IC50: < 100 nM for the first, < 1000 nM for the second.
